Assay results as given in the NIST ThermoML archive (doi:10.1021/je500498m).

Assay: xn = mol fraction of the nth substance listed
Details: for speed of sound: 100 kPa, Sing-around technique in a fixed-path interferometer; for speed of sound / viscosity / mass density: Liquid; for viscosity / mass density: 101 kPa; for viscosity: Falling or rolling sphere viscometry; for mass density: Vibrating tube method; for surface tension liquid-gas: 294.4 K, Pendant drop shape

CCCCCCCCCCCCCCCC [hexadecane] + CCc1ccccc1
Details | mass density [kg/m3] | speed of sound [m/s] | viscosity [mPa·s]
293.15 K, x2 = 0 | 773.49 | 1357.3 | 3.44
293.15 K, x2 = 0.1007 | 777.15 | 1353.4 | 3.01
293.15 K, x2 = 0.2 | 781.37 | 1349.4 | 2.63
293.15 K, x2 = 0.3002 | 786.28 | 1345.2 | 2.28
293.15 K, x2 = 0.4013 | 792.08 | 1340.7 | 1.96
293.15 K, x2 = 0.5002 | 798.81 | 1336.7 | 1.69
293.15 K, x2 = 0.6001 | 806.86 | 1333.1 | 1.43
293.15 K, x2 = 0.7002 | 816.95 | 1330.4 | 1.21
293.15 K, x2 = 0.8001 | 829.46 | 1329.3 | 1.01
293.15 K, x2 = 0.9 | 845.47 | 1331.5 | 0.83
303.15 K, x2 = 0 | 766.55 | 1320 | 2.72
303.15 K, x2 = 0.1007 | 770.16 | 1316 | 2.42
303.15 K, x2 = 0.2 | 774.31 | 1312 | 2.14
303.15 K, x2 = 0.3002 | 779.13 | 1307.8 | 1.88
303.15 K, x2 = 0.4013 | 784.83 | 1303.1 | 1.64
303.15 K, x2 = 0.5002 | 791.42 | 1298.9 | 1.42
303.15 K, x2 = 0.6001 | 799.32 | 1295 | 1.23
303.15 K, x2 = 0.7002 | 809.21 | 1291.9 | 1.05
303.15 K, x2 = 0.8001 | 821.46 | 1291.1 | 0.88
303.15 K, x2 = 0.9 | 837.13 | 1291.3 | 0.73
313.15 K, x2 = 0 | 759.63 | 1283.3 | –
313.15 K, x2 = 0.1007 | 763.17 | 1279.2 | –
313.15 K, x2 = 0.2 | 767.24 | 1275.1 | –
313.15 K, x2 = 0.3002 | 771.97 | 1270.8 | –
313.15 K, x2 = 0.4013 | 777.56 | 1266 | –
313.15 K, x2 = 0.5002 | 784.01 | 1261.6 | –
313.15 K, x2 = 0.6001 | 791.75 | 1257.4 | –
313.15 K, x2 = 0.7002 | 801.42 | 1253.8 | –
313.15 K, x2 = 0.8001 | 813.41 | 1251.3 | –
313.15 K, x2 = 0.9 | 828.73 | 1251.6 | –
323.15 K, x2 = 0 | 752.71 | 1247.3 | 1.82
323.15 K, x2 = 0.1007 | 756.18 | 1243.2 | 1.65
323.15 K, x2 = 0.2 | 760.17 | 1239 | 1.49
323.15 K, x2 = 0.3002 | 764.8 | 1234.5 | 1.34
323.15 K, x2 = 0.4013 | 770.27 | 1229.4 | 1.19
323.15 K, x2 = 0.5002 | 776.58 | 1224.8 | 1.05
323.15 K, x2 = 0.6001 | – | 1220.3 | 0.92
323.15 K, x2 = 0.7002 | – | 1216.2 | 0.8
323.15 K, x2 = 0.8001 | – | 1213.1 | 0.68
323.15 K, x2 = 0.9 | – | 1212.5 | 0.57

Details | surface tension liquid-gas [mN/m]
x2 = 0 | 27.3
x2 = 0.2 | 27.4
x2 = 0.4013 | 27.5
x2 = 0.5002 | 27.5
x2 = 0.6001 | 27.8
x2 = 0.7002 | 28
x2 = 0.8001 | 28.2
x2 = 0.9 | 28.5
